Experimental data published in patent publication US11713338B2, “Cyclic peptides multimers targeting α-4-β-7 integrin” (priority 2016, dated 2023).

System: α4β7+ T helper memory lymphocytes in mesenteric lymph nodes
Test: In vivo T lymphocyte trafficking analysis in DSS mouse model of colitis
Settings: DSS-treated mice
Procedure: Receptor occupancy was calculated with the following equation: 100−((% ligand-positive cells with compound/% ligand-positive cells DMSO)*100) In Vivo T Lymphocyte Trafficking Analysis in Mouse Model of Colitis
Animal care: The animal care facility employed is accredited by the Canadian Council on Animal Care (CCAC). This study was approved by a certified Animal Care Committee and complied with CACC standards and regulations governing the use of animals for research. The animals were housed under standardized environmental conditions. A standard certified commercial rodent diet was provided ad libitum. Tap water was provided ad libitum at all times.
Dextran sulfate sodium (DSS) was administered to C57Bl/6 female mice for five days through addition to their drinking water at 3%. Body weight and disease activity index (“DAI”) were measured on Day 5 in order to distribute DSS-treated animals in uniform groups prior to dosing. DAI was scored based on the severity three specific symptoms associated with colitis: 1—blood in stool (negative hemoccult, positive hemoccult, blood traces in stool visible, rectal bleeding); 2—stool consistency (normal, soft but still formed, very soft, diarrhea); 3—body weight loss. […]
Statistical analysis was performed using GraphPad Prism. Differences among groups were evaluated by two-way ANOVA, with a 95% confidence interval.

`CC(C)C[C@@H]1NC(=O)c2ccc(-c3ccc(N4CCN(C(=O)c5ccccc5-c5ccccc5C(=O)N5CCN(c6ccc(-c7ccc8cc7CNC(=O)[C@@H]7CCCN7[C@H](C(=O)NC(C)(C)C)[C@H](C)NC(=O)[C@H]([C@@H](C)O)NC(=O)[C@H](CC(=O)O)NC(=O)[C@H](CC(C)C)NC8=O)cc6)CC5)CC4)cc3)c(c2)CNC(=O)[C@@H]2CCCN2[C@H](C(=O)NC(C)(C)C)[C@H](C)NC(=O)[C@H]([C@@H](C)O)NC(=O)[C@H](CC(=O)O)NC1=O` [Compound 517] was tested, and the “reduction of the number of α4β7+ positive lymphocytes in mesenteric lymph nodes” value (80 mg/kg orally daily days 6 to 9) was 60% and the “reduction in α4β7+ T helper memory lymphocytes in mesenteric lymph nodes, dose dependence” value (FIG. 9) was “dose-dependent reduction”.
